The values that follow come from PubChem BioAssay AID328 (DTP/NCI, 2004).

For the assay, the system named is BDF1 mice, P388 leukemia ip, median survival T/C. The experiment in a line: NCI In Vivo Anticancer Drug Screen. Data for tumor model P388 Leukemia (intraperitoneal) in B6D2F1 (BDF1) mice. Particulars: endpoint: median survival time, higher = longer survival. An outline of the steps: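 In tumour-bearing mice, survival after compound treatment is set against the vehicle group and given as a quotient.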

[1] abbreviates: dose: 50.0 mg/kg/injection, schedule: Q01DX009 (ip), vehicle: water.
[2] abbreviates: dose: 100.0 mg/kg/injection, schedule: Q01DX009 (ip), vehicle: water.
[3] abbreviates: dose: 200.0 mg/kg/injection, schedule: Q01DX009 (ip), vehicle: water.
Where [4] appears, read: dose: 100.0 mg/kg/injection, schedule: Q01DX009 (ip), vehicle: saline with Tween-80.
[5] abbreviates: dose: 200.0 mg/kg/injection, schedule: Q01DX009 (ip), vehicle: saline with Tween-80.
[6] abbreviates: dose: 400.0 mg/kg/injection, schedule: Q01DX009 (ip), vehicle: saline with Tween-80.
The mark [7] stands for this setting: dose: 100.0 mg/kg/injection, schedule: Q04DX003 (ip), vehicle: saline with Tween-80.
The mark [8] stands for this setting: dose: 50.0 mg/kg/injection, schedule: Q01DX009 (ip), vehicle: Klucel (hydroxypropylcellulose) (HPC).
Where [9] appears, read: dose: 50.0 mg/kg/injection, schedule: Q01DX009 (ip), vehicle: saline.
Setting [10] is: dose: 100.0 mg/kg/injection, schedule: Q01DX009 (ip), vehicle: saline.
Setting [11] is: dose: 50.0 mg/kg/injection, schedule: Q01DX009 (ip), vehicle: saline with Tween-80.

Toxic doses and inconclusive results are not listed.

For `CCCCNC(C)(C)C(SS)c1ccc(C(F)(F)F)cc1` (centres undefined), the T/C by setting is: (dose: 6.25 mg/kg/injection, schedule: Q04DX003 (ip), vehicle: other) 100 % of control; (dose: 12.5 mg/kg/injection, schedule: Q04DX003 (ip), vehicle: other) 105 % of control; (dose: 25.0 mg/kg/injection, schedule: Q04DX003 (ip), vehicle: other) 110 % of control.

Regarding `Cc1[nH]c(=O)[nH]c(=O)c1NCCO`, the T/C runs as follows: under setting [1], 102 % of control; under setting [2], 109 % of control; under setting [3], 105 % of control; (dose: 400.0 mg/kg/injection, schedule: Q01DX009 (ip), vehicle: water) 112 % of control.

Consider `Clc1nc2nc(C3CC3)[nH]c2nc1Cl`, for which the T/C by setting is: under setting [4], 104 % of control; under setting [5], 100 % of control; under setting [6], 104 % of control.

In the case of `O=C(O)c1cc(Br)c(Br)s1`, the T/C (dose: 50.0 mg/kg/injection, schedule: Q04DX003 (ip), vehicle: saline with Tween-80) was 91 % of control; the T/C under setting [7] is 100 % of control; the T/C (dose: 200.0 mg/kg/injection, schedule: Q04DX003 (ip), vehicle: saline with Tween-80) was 112 % of control.

`CCCCCC[C@@H](O)[C@@H]1C2=C(C[C@H]([C@H](O)[C@@H]3CC=CC(=O)O3)CC3=C(C(=O)OC3=O)[C@@H]1O)C(=O)OC2=O`: the T/C (dose: 0.12 mg/kg/injection, schedule: Q01DX009 (ip), vehicle: saline) was 107 % of control; the T/C (dose: 0.25 mg/kg/injection, schedule: Q01DX009 (ip), vehicle: saline) was 109 % of control; the T/C (dose: 0.5 mg/kg/injection, schedule: Q01DX009 (ip), vehicle: saline) is 107 % of control; the T/C (dose: 1.0 mg/kg/injection, schedule: Q01DX009 (ip), vehicle: saline) was 119 % of control.

Consider `CC1(C)N=C(N)N=C(N)N1c1ccc(-c2ccccc2)cc1`, for which the T/C was 99 % of control (dose: 25.0 mg/kg/injection, schedule: Q01DX009 (ip), vehicle: Klucel (hydroxypropylcellulose) (HPC)) and 106 % of control under setting [8].

For the compound `c1ccc(Cn2ccnc2C2OCCO2)cc1`, the T/C was 95 % of control (dose: 6.25 mg/kg/injection, schedule: Q01DX009 (ip), vehicle: water); 88 % of control (dose: 12.5 mg/kg/injection, schedule: Q01DX009 (ip), vehicle: water); 104 % of control (dose: 12.5 mg/kg/injection, schedule: Q04DX003 (ip), vehicle: water); 101 % of control (dose: 25.0 mg/kg/injection, schedule: Q04DX003 (ip), vehicle: water); 112 % of control under setting [1]; 107 % of control (dose: 50.0 mg/kg/injection, schedule: Q04DX003 (ip), vehicle: water). Besides, the T/C is 93 % of control under setting [2]; 92 % of control (dose: 100.0 mg/kg/injection, schedule: Q04DX003 (ip), vehicle: water); 87 % of control under setting [3].

`CCC[CH2][Sn]1([CH2]CCC)[O]OC(c2ccc(C)cc2)[O]1` (centres undefined): the T/C was 114 % of control (dose: 0.38 mg/kg/injection, schedule: Q01DX009 (ip), vehicle: saline with Tween-80); 117 % of control (dose: 1.5 mg/kg/injection, schedule: Q01DX009 (ip), vehicle: saline with Tween-80); 123 % of control (dose: 3.13 mg/kg/injection, schedule: Q01DX009 (ip), vehicle: saline with Tween-80); 86 % of control (dose: 5.3 mg/kg/injection, schedule: Q01DX009 (ip), vehicle: saline with Tween-80).

With `O=C1c2ccccc2C(=Cc2ccccc2)c2ccccc21`, the T/C reads like this: under setting [4], 118 % of control; under setting [5], 100 % of control; under setting [6], 113 % of control.

As for `CC(C)(C)N1CC1CN` (centres undefined), the T/C is, setting by setting: under setting [9], 90 % of control; under setting [10], 90 % of control; (dose: 200.0 mg/kg/injection, schedule: Q01DX009 (ip), vehicle: saline) 89 % of control; (dose: 400.0 mg/kg/injection, schedule: Q01DX009 (ip), vehicle: saline) 121 % of control.

Take `Cc1cc(=O)n(Cc2ccccc2)c(O)c1C`: the T/C was 102 % of control (dose: 100.0 mg/kg/injection, schedule: Q04DX003 (ip), vehicle: Klucel (hydroxypropylcellulose) (HPC)) and 94 % of control (dose: 200.0 mg/kg/injection, schedule: Q04DX003 (ip), vehicle: Klucel (hydroxypropylcellulose) (HPC)).

With `C/C(=C\Cl)CN(C)C`, the T/C (dose: 56.25 mg/kg/injection, schedule: Q01DX001 (ip), vehicle: saline) was 100 % of control; the T/C (dose: 56.25 mg/kg/injection, schedule: Q04DX003 (ip), vehicle: saline) is 95 % of control; the T/C (dose: 112.5 mg/kg/injection, schedule: Q01DX001 (ip), vehicle: saline) is 86 % of control; the T/C (dose: 112.5 mg/kg/injection, schedule: Q04DX003 (ip), vehicle: saline) was 90 % of control; the T/C (dose: 150.0 mg/kg/injection, schedule: Q01DX009 (ip), vehicle: saline) is 105 % of control; the T/C (dose: 225.0 mg/kg/injection, schedule: Q01DX001 (ip), vehicle: saline) was 100 % of control. Moreover, under “dose: 225.0 mg/kg/injection, schedule: Q01DX009 (ip), vehicle: saline”, the T/C is 105 % of control.

Consider `CC1(C)NC(=O)NC1=O`, for which the T/C runs as follows: (dose: 100.0 mg/kg/injection, schedule: Q01DX001 (ip), vehicle: saline with Tween-80) 100 % of control; (dose: 200.0 mg/kg/injection, schedule: Q01DX001 (ip), vehicle: saline with Tween-80) 100 % of control; (dose: 400.0 mg/kg/injection, schedule: Q01DX001 (ip), vehicle: saline with Tween-80) 100 % of control.

For `C=CC(C)(C)C12CC3C(=O)N/C(=C\c4cnc[nH]4)C(=O)N3C1Nc1ccccc12` (centres undefined), the T/C under setting [8] was 94 % of control; the T/C (dose: 100.0 mg/kg/injection, schedule: Q01DX009 (ip), vehicle: Klucel (hydroxypropylcellulose) (HPC)) is 94 % of control; the T/C (dose: 200.0 mg/kg/injection, schedule: Q01DX009 (ip), vehicle: Klucel (hydroxypropylcellulose) (HPC)) was 92 % of control.

For `O=C(O)CCCCOc1ccc(N(CCCl)CCCl)cc1`, the T/C is 174 % of control (dose: 50.0 mg/kg/injection, schedule: Q01DX001 (ip), vehicle: Klucel (hydroxypropylcellulose) (HPC)); 177 % of control (dose: 100.0 mg/kg/injection, schedule: Q01DX001 (ip), vehicle: Klucel (hydroxypropylcellulose) (HPC)); 155 % of control (dose: 200.0 mg/kg/injection, schedule: Q01DX001 (ip), vehicle: Klucel (hydroxypropylcellulose) (HPC)).

Take `COC(=O)CC(N)C(=O)OC` (centres undefined): the T/C (dose: 25.0 mg/kg/injection, schedule: Q01DX009 (ip), vehicle: saline) was 102 % of control; the T/C under setting [9] was 110 % of control; the T/C under setting [10] was 103 % of control.

Regarding `C[C@]12CC[C@H]3[C@@H](CCC4=CC(=O)CC[C@@H]43)[C@@H]1CC[C@@H]2OC(=O)CCc1ccccc1`, the T/C is, setting by setting: under setting [4], 100 % of control; under setting [7], 86 % of control; under setting [5], 100 % of control; under setting [6], 90 % of control; (dose: 400.0 mg/kg/injection, schedule: Q04DX003 (ip), vehicle: saline with Tween-80) 86 % of control.

Turning to `CC(C)CC(B1OCCO1)(C1CCCCC1)C1CCCCC1`, the T/C is, setting by setting: (dose: 12.5 mg/kg/injection, schedule: Q01DX009 (ip), vehicle: saline with Tween-80) 100 % of control; (dose: 25.0 mg/kg/injection, schedule: Q01DX009 (ip), vehicle: saline with Tween-80) 100 % of control; under setting [11], 90 % of control; (dose: 100.0 mg/kg/injection, schedule: Q04DX003 (ip), vehicle: other) 109 % of control; (dose: 200.0 mg/kg/injection, schedule: Q04DX003 (ip), vehicle: other) 122 % of control; (dose: 400.0 mg/kg/injection, schedule: Q04DX003 (ip), vehicle: other) 122 % of control.

For the compound `COC(=O)CCC(C)C1CCC2C3CCC4CC(SC(=N)N)CCC4(C)C3CC(O)C12C` (centres undefined), the T/C under setting [11] is 91 % of control, the T/C under setting [4] is 89 % of control and the T/C under setting [5] is 89 % of control.
